Assay results as given in US10611732B2, “HIV replication inhibiting pyrimidines” (Janssen Pharmaceutica NV, priority 2001, dated 2020).

What was measured:
HIV = assay: microbe, parasite or virus in culture; settings: for IC50: Human immunodeficiency virus 1, MT4, read-out: pIC50 (−log IC50), HIV-infected MT-4 cells (converted), dose achieving 50% protection, MTT, OD 540 nm; for pSI (pCC50-pIC50): selectivity index, ratio of CC50 to IC50, as log difference
Procedure: (§1) A rapid, sensitive and automated assay procedure was used for the in vitro evaluation of anti-HIV agents. An […] T4-cell line, MT-4, which was previously shown (Koyanagi et al., Int. J Cancer, 36, 445-451, 1985) to be highly susceptible to and permissive for HIV infection, served as the target cell line. Inhibition of the HIV-induced cytopathic effect was used as the end point. The viability of both HIV- and mock-infected cells was assessed spectrophotometrically via the in situ reduction of 3-(4,5-dimethylthiazol-2-yl)-2,5-diphenyltetrazolium bromide (MTT). The 50% cytotoxic concentration (CC50 in M) was defined as the concentration of compound that reduced the absorbance of the mock-infected control sample by 50%. The percent protection achieved by the compound in HIV-infected cells was calculated by the following formula:
(§2) [formula] whereby (ODT)HIV is the optical density measured with a given concentration of the test compound in HIV-infected cells; (ODC)HIV is the optical density measured for the control untreated HIV-infected cells; (ODC)MOCK is the optical density measured for the control untreated mock-infected cells; all optical density values were determined at 540 nm. The dose achieving 50% protection according to the above formula was defined as the 50% inhibitory concentration (IC50 in M). The ratio of CC50 to IC50 was defined as the selectivity index (SI).
(§3) Table 6 lists the pIC50 (−log IC50), pCC50 (−log CC50) and pSI (pCC50-pIC50) values for the compounds of formula (I).

[1] = cytotoxicity in mock-infected MT-4 cells (MTT); settings: human, mock-infected MT-4 cells
Procedure: as §1, §2, §3

Row | Structure (SMILES) | IC50 (HIV) | pSI (pCC50-pIC50) (HIV) | melting point | CC50 [1]
1 | Cc1cc(/C=C/C(=O)N(C)C)cc(C)c1Nc1ccnc(Nc2ccc(C#N)cc2)n1 [Compound 112] | 0.794 nM | −4.2 | > 264 °C | 
2 | Cc1cc(/C=C(/F)C#N)cc(C)c1Oc1ccnc(Nc2ccc(C#N)cc2)n1 [Compound 110] | 2.51 nM | −4.3 | 254 °C | 50100 nM
3 | CCOCc1ccc(Oc2ccnc(Nc3ccc(C#N)cc3)n2)c(C)c1 [Compound 105] | 63.1 nM | <−3.2 | 140 °C | 
4 | Cc1cc(/C=C/C(=O)N(C)CCC#N)cc(C)c1Nc1ccnc(Nc2ccc(C#N)cc2)n1 [Compound 114] | 2.51 nM | −3.5 | 168 °C | 
5 | Cc1cc(-c2ccc(C#N)o2)cc(C)c1Nc1ccnc(Nc2ccc(C#N)cc2)n1 [Compound 126] | 3.98 nM | −3.5 | > 260 °C | 
